Drawing on US10435361B2, “Kinase inhibitors” (Topivert Pharma Limited, priority 2013, dated 2019), this text covers inhibition and IC50 for 14 compounds.

Assay type in all cases: cell-based
Assay [1] has as its system PBMCs. Nature of the assay: Cell mitosis assay in PBMCs. Conditions: Homo sapiens, PBMC, 5 μg/mL. The method, boiled down:
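Human PBMCs from healthy donors, density-gradient isolated, stimulated with 2% PHA 48 h, then exposed 20 h to test compounds; demecolcine 0.1 μg/mL added 2 h before harvest. Fixed/permeabilised cells stained for phospho-histone H3 and propidium iodide; mitotic lymphocytes counted by flow cytometry.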

In assay [2] the test system is PBMCs. Nature of the assay: LPS-induced TNFα/IL-8 release in PBMC cells. As to conditions: Homo sapiens, assay (b), read-out: IC50 Values for Inhibition of Cytokine Release PBMCs IL-8. The method, boiled down:
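Healthy-donor PBMCs isolated by density gradient were pretreated with compound for 2 h, then stimulated with 1 ng/mL LPS (E. coli 0111:B4) for 24 h at 37° C., 5% CO2. IL-8 and TNFα in supernatants measured by sandwich ELISA.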

Assay [3] relates to PBMCs. Nature of the assay: IL-2 and IFN gamma release in CD3/CD28 stimulated PBMC cells. Conditions: Homo sapiens, assay (c). The method, boiled down: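 Healthy-donor PBMCs, density-gradient isolated, stimulated on plates pre-coated with anti-CD3 (0.3 μg/mL) and anti-CD28 (3 μg/mL) antibodies, with compound, for 3 days under standard culture conditions. IC50 derived from the dose-response curve.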

The next assay deals with HT29 cells. Put plainly: IL-1β-induced IL-8 release in HT29 cells. Conditions: Homo sapiens, HT-29, assay (d), read-out: IC50 Values for Inhibition of Cytokine Release HT29 cells IL-8. The protocol:
HT29 cells, a human colon adenocarcinoma cell line, are plated in a 96 well plate (24 hr) and pre-treated with compounds at the desired concentration for 2 hours before addition of 5 ng/mL of IL-1β (Abcam) for 24 hours. Supernatants are harvested for IL-8 quantification by Sandwich ELISA (Duo-set, R&D System). The IC50 is determined from the dose response curve.

Where [4] appears, read: read-out: IC50 Values for Inhibition of Cytokine Release PBMCs IFNγ.
Setting [5] is: read-out: IC50 Values for Inhibition of Cytokine Release PBMCs IL-2.

`COCCOCCOCCOc1cc(Nc2nccc(Oc3ccc(NC(=O)Nc4cc(C(C)(C)C)cc(S(N)(=O)=O)c4OC)c4ccccc34)n2)cc(OC)c1` [Example 55, 5-(tert-Butyl)-2-methoxy-3-(3-(4-((2-((3-methoxy-5-(2-(2-(2-methoxyethoxy)ethoxy)-ethoxy)phenyl)amino)pyrimidin-4-yl)oxy)naphthalen-1-yl)ureido)benzenesulfonamide]: the inhibition at 5 µg/mL in the assay on PBMCs [1] was 54.3%. The IC50 in the assay with PBMCs [2] was 2.2 nM; in the assay with PBMCs [3] (setting [4]), 12 nM; in the assay on PBMCs [3] (setting [5]), 35.2 nM; with HT29 cells, 4.5 nM.
The compound `C#Cc1cc(Nc2cc(Oc3ccc(NC(=O)Nc4cc(C(C)(C)C)cc(C(N)=O)c4OC)c4ccccc34)ccn2)cc(C(=O)NCCOCCOCCOC)c1` [Example 53, 3-((4-((4-(3-(5-(tert-Butyl)-3-carbamoyl-2-methoxyphenyl)ureido)naphthalen-1-yl)oxy)pyridin-2-yl)amino)-5-ethynyl-N-(2-(2-(2-methoxyethoxy)ethoxy)ethyl)benzamide] returned an inhibition at 5 µg/mL in the assay on PBMCs [1] of 30.3%. Also, the IC50 in the assay with PBMCs [2] came to 1.6 nM; in the assay with PBMCs [3] (setting [4]) it was 14.9 nM; in the assay with PBMCs [3] (setting [5]), 181 nM; in the assay with HT29 cells it was 6.4 nM.
The matching figures for `C#Cc1cc(Nc2cc(Oc3ccc(NC(=O)Nc4cc(NS(C)(=O)=O)cc(C(C)(C)C)c4)c4ccccc34)ccn2)cc(C(=O)NCCN2CCOCC2)c1` [Example 65, 3-((4-((4-(3-(3-(tert-Butyl)-5-(methylsulfonamido)phenyl)ureido)naphthalen-1-yl)oxy)-pyridin-2-yl)amino)-5-ethynyl-N-(2-morpholinoethyl)benzamide]: 51.1%, 4 nM, 34.4 nM, 131 nM and 145 nM.
Compound `COCCOCCOCCOc1cc(Nc2nccc(Oc3ccc(NC(=O)Nc4cc(C(C)(C)C)cc(C(=O)NC5COC5)c4OC)c4ccccc34)n2)cc(OC)c1` [Example 51, 5-(tert-Butyl)-2-methoxy-3-(3-(4-((2-((3-methoxy-5-(2-(2-(2-methoxyethoxy)ethoxy)-ethoxy)phenyl)amino)pyrimidin-4-yl)oxy)naphthalen-1-yl)ureido)-N-(oxetan-3-yl)-benzamide] showed an inhibition at 5 µg/mL in the assay on PBMCs [1] of 44.3%. The IC50 in the assay with PBMCs [2] was 1.6 nM; with PBMCs [3] (setting [4]), 1.8 nM; in the assay with PBMCs [3] (setting [5]), 46.3 nM; with HT29 cells, 1.7 nM.
In the assay on PBMCs [1], `C#Cc1cc(Nc2nccc(Oc3ccc(NC(=O)Nc4cc(C(C)(C)C)cc(NS(C)(=O)=O)c4OC)c4ccccc34)n2)cc(C(=O)N[C@H](C)CN2CCOCC2)c1` [Example 56, (R)-3-((4-((4-(3-(5-(tert-Butyl)-2-methoxy-3-(methylsulfonamido)phenyl)ureido)-naphthalen-1-yl)oxy)pyrimidin-2-yl)amino)-5-ethynyl-N-(1-morpholinopropan-2-yl)-benzamide] displayed an inhibition at 5 µg/mL of 46.4%. The concentration for half-maximal inhibition (IC50) in the assay with PBMCs [2] amounted to 1.8 nM; with PBMCs [3] (setting [4]), 12.2 nM; with PBMCs [3] (setting [5]), 35.2 nM; in the assay with HT29 cells it was 8.6 nM.
The matching figures for `CNC(=O)c1cc(NC(=O)Nc2ccc(Oc3ccnc(Nc4cc(OC)cc(OCCOCCOCCOC)c4)n3)c3ccccc23)cc(C(C)(C)C)c1` [Example 23, 3-(tert-Butyl)-5-(3-(4-((2-((3-methoxy-5-(2-(2-(2-methoxyethoxy)ethoxy)ethoxy)phenyl)-amino)pyrimidin-4-yl)oxy)naphthalen-1-yl)ureido)-N-methylbenzamide]: 25.4%, 2.6 nM, 9.1 nM, 17.1 nM and 4.7 nM.
In the assay on PBMCs [1], `C#Cc1cc(Nc2cc(Oc3ccc(NC(=O)Nc4cc(C(C)(C)C)cc(NS(C)(=O)=O)c4OC)c4ccccc34)ccn2)cc(C(=O)NCCN2CCOCC2)c1` [Example 49, 3-((4-((4-(3-(5-(tert-Butyl)-2-methoxy-3-(methylsulfonamido)phenyl)ureido)naphthalen-1-yl)oxy)pyridin-2-yl)amino)-5-ethynyl-N-(2-morpholinoethyl)benzamide] showed an inhibition at 5 µg/mL of 40.1%. For the same compound, the IC50 with PBMCs [2] was determined as 2.5 nM; with PBMCs [3] (setting [4]), 11 nM; with PBMCs [3] (setting [5]), 227 nM; in the assay with HT29 cells, 8.6 nM.
The matching figures for `COCCOCCOCCOc1cc(Nc2nccc(Oc3ccc(NC(=O)Nc4cc(C(C)(C)C)cc(NS(C)(=O)=O)c4OC)c4ccccc34)n2)cc(OC)c1Cl` [Example 58, N-(5-(tert-Butyl)-3-(3-(4-((2-((4-chloro-3-methoxy-5-(2-(2-(2-methoxyethoxy)ethoxy)ethoxy)-phenyl)amino)pyrimidin-4-yl)oxy)naphthalen-1-yl)ureido)-2-methoxyphenyl)-methanesulfonamide]: 41.7%, 2.6 nM, 17.1 nM, 137 nM and 10.6 nM.
Regarding `C#Cc1cc(Nc2cc(Oc3ccc(NC(=O)Nc4cc(C(C)(C)C)cc(NS(C)(=O)=O)c4OC)c4ccccc34)ccn2)cc(C(=O)NCCOCCOC)c1` [Example 52, 3-((4-((4-(3-(5-(tert-Butyl)-2-methoxy-3-(methylsulfonamido)phenyl)ureido)naphthalen-1-yl)oxy)pyridin-2-yl)amino)-5-ethynyl-N-(2-(2-methoxyethoxy)ethyl)benzamide], in the assay on PBMCs [1], at 5 µg/mL the inhibition was 31%. The IC50 with PBMCs [2] turned out to be 2.4 nM; with PBMCs [3] (setting [4]), 39 nM; in the assay on PBMCs [3] (setting [5]) it was 205 nM; with HT29 cells, 17.3 nM.
`C#Cc1cc(Nc2cc(Oc3ccc(NC(=O)Nc4cc(C(C)(C)C)cc(C(N)=O)c4OC)c4ccccc34)ccn2)cc(C(=O)NCCN2CCOCC2)c1` [Example 48, 3-((4-((4-(3-(5-(tert-Butyl)-3-carbamoyl-2-methoxyphenyl)ureido)naphthalen-1-yl)oxy)pyridin-2-yl)amino)-5-ethynyl-N-(2-morpholinoethyl)benzamide] registered an inhibition at 5 µg/mL in the assay with PBMCs [1] of 44.2%. For the same compound, the IC50 with PBMCs [2] turned out to be 3.4 nM; in the assay with PBMCs [3] (setting [4]) it was 17.2 nM; in the assay with PBMCs [3] (setting [5]), 144 nM; in the assay on HT29 cells it was 10.2 nM.
In the assay with PBMCs [1], `COCCOCCOc1cc(Nc2nccc(Oc3ccc(NC(=O)Nc4cc(C(C)(C)C)cc(NS(C)(=O)=O)c4OC)c4ccccc34)n2)cc(OC)c1` [Example 36, N-(5-(tert-Butyl)-2-methoxy-3-(3-(4-((2-((3-methoxy-5-(2-(2-methoxyethoxy)ethoxy)-phenyl)amino)pyrimidin-4-yl)oxy)naphthalen-1-yl)ureido)phenyl)methanesulfonamide] yielded an inhibition at 5 µg/mL of 45%. Also, the IC50 in the assay on PBMCs [2] was 1.8 nM; in the assay on PBMCs [3] (setting [4]) it was 5.7 nM; in the assay with PBMCs [3] (setting [5]), 65.3 nM; with HT29 cells, 0.8 nM.
For `C#Cc1cc(Nc2nccc(Oc3ccc(NC(=O)Nc4cc(C(C)(C)C)cc(NS(C)(=O)=O)c4OC)c4ccccc34)n2)cc(C(=O)N[C@@H](C)CN2CCOCC2)c1` [Example 57, (S)-3-((4-((4-(3-(5-(tert-butyl)-2-methoxy-3-(methylsulfonamido)phenyl)ureido)-naphthalen-1-yl)oxy)pyrimidin-2-yl)amino)-5-ethynyl-N-(1-morpholinopropan-2-yl)benzamide], in the assay on PBMCs [1], the inhibition at 5 µg/mL stood at 42.1%. In addition, the IC50 with PBMCs [2] turned out to be 3.6 nM; in the assay on PBMCs [3] (setting [4]), 74.5 nM; in the assay on PBMCs [3] (setting [5]) it was 140 nM; with HT29 cells, 21.2 nM.
The matching figures for `COCCOCCOCCOCCOCCOCCOCCOc1cc(Nc2cc(Oc3ccc(NC(=O)Nc4cc(C(C)(C)C)cc(NS(C)(=O)=O)c4OC)c4ccccc34)ccn2)cc(OC)c1` [Example 45, N-(3-(3-(4-((2-((3-(2,5,8,11,14,17,20-Heptaoxadocosan-22-yloxy)-5-methoxyphenyl)-amino)pyridin-4-yl)oxy)naphthalen-1-yl)ureido)-5-(tert-butyl)-2-methoxyphenyl)methane-sulfonamide]: 45%, 1.4 nM, 7.8 nM, 182 nM and 2.1 nM.
The matching figures for `C#Cc1cc(Nc2cc(Oc3ccc(NC(=O)Nc4cc(C(C)(C)C)cc(C(=O)NC)c4OC)c4ccccc34)ccn2)cc(C(=O)NCCN2CCOCC2)c1` [Example 39, 5-(tert-Butyl)-3-(3-(4-((2-((3-ethynyl-5-((2-morpholinoethyl)carbamoyl)phenyl)amino)-pyridin-4-yl)oxy)naphthalen-1-yl)ureido)-2-methoxy-N-methylbenzamide]: 34.7%, 2.5 nM, 9.6 nM, 132 nM and 5.3 nM.

As a reminder, the inhibition is the drop in the measured response relative to a control, in per cent. What is called IC50 is the concentration that inhibits the measured activity by half.
